Holding throughout (type): cell-based
One experiment concerns SK-OV-3. Kind of experiment: Cytotoxicity, adherent cells, 14C-thymidine incorporation (cell proliferation). Particulars: SK-OV-3 human ovarian cancer, 96 h treatment, read-out: SKOV3 IC50. The procedure:
SK-OV-3 is a human ovarian cancer. […] This cell has an intrinsic mechanism of resistance to cisplatin which is linked to high levels of glutathione (Br J Cancer 1998; 78:175-180). This cell line is commonly used to explore the effects of high levels of glutathione on the resistance to platinum compounds (Br J Cancer 1996, 74: 380-386).
(§1) Cell proliferation is evaluated by the incorporation of ^14C-thymidine into the DNA of the cells. A549, CH1, CH1/DDP and H460 are cultured in Dulbecco's modified Eagle's medium (DMEM), SK-OV-3 in Mc-Coy medium, A2780 and A2780/DDP in RPMI1640 medium. All the media contain 10% foetal calf serum, 2 mM L-glutamine, 100 units/ml of penicillin and […] of streptomycin. The incubation is performed at 37° C. in a 95% air/5% CO2 atmosphere.
(§2) The cells, at the exponential growth phase, are introduced into the wells of a Cytostar 96-well plate, containing a scintillation fluid (Cytostar-T scintillating microplate, GE Healthcare Bio-Sciences AB, Uppsala, Sweden), at the density of 5×10^3 to 10^4 cells per well, in an amount of 180 μl per well. After incubating for 4 hours, the test compounds are added. The compounds are prepared beforehand as a stock solution at the concentration of 10 mM in DMSO. A serial dilution is performed before the compounds are brought into contact with the cells in a volume of 10 μl. After incubating for 72 hours at 37° C. in an atmosphere of 95% air/5% CO2, 0.1 μCi/well of ^14C-thymidine is added. 24 h later (total 96 h of treatment), the incorporation of ^14C-thymidine is recorded on a suitable scintillation counter (MicroBeta radioactivity counting, Perkin-Elmer Life Sciences, Boston, Mass., USA). The mean values obtained in the experimental groups are divided by the mean values obtained in the control groups in order to obtain percentages relative to the controls.
(§3) The IC50 values are evaluated from curves presenting the percentage viability as a function of the concentration of the test compound, using the Biostat speed software. The IC50 is defined as the concentration of the compound which inhibits 50% of the cell proliferation or 50% of the cell viability.
Background: Dividing cells build labelled thymidine or BrdU into new DNA.

Another experiment concerns CH1/DDP. The description is as above. Particulars: CH1/DDP cisplatin-resistant human ovarian cancer, 96 h treatment.
Text: (§4) CH1 and CH1 CisR are human ovarian cancers which are sensitive and resistant to cisplatin, respectively. The relative sensitivity of the CH1 cell may be at least partially attributed to a deficiency of a gene involved in repair processes and which is capable of removing the adducts (Chemico-Biological Interactions, 1999; 123:11-29). The CH1cisR cell is resistant to cisplatin through a poorly known mechanism of DNA repair, or increase in the tolerance of the cell to the damage caused by cisplatin to the DNA of this cell (Mol Pharmacol 2003; 63:933-944, Cancer Res 52: 3857-3864).
as §1, §2, §3

A further experiment relates to CH1. The experiment is described as above. Conditions: CH1 human ovarian cancer, 96 h treatment.
Text: as §4, §1, §2, §3

The next experiment deals with A2780. The experiment is described as above. Conditions: A2780 human ovarian cancer, 96 h treatment.
Text: (§5) A2780 and A2780/DDP are human ovarian cancer lines. […] The resistance of the A2780/DDP line is of the acquired type and involves various mechanisms: —reduction in the capacity for internalization of cisplatin, —replicative bypass (this is defined as the possibility for a replicative complex to synthesize DNA beyond the site of damage) (Cancer Res 1994; 54:3500-3505), —active detoxification by glutathione (Exp Oncol 2005; 27:191-195), —low activity of Caspase-3, enzymes involved in the process of programmed cell death (J Cancer Res Clin Oncol 2004; 130:423-428) and finally high nuclear efflux of platinum compounds (Oncol Rep 2004; 12:1365-1370).
as §1, §2, §3

A further experiment concerns A2780/DDP. The experiment is described as above. Particulars: A2780/DDP cisplatin-resistant human ovarian cancer, 96 h treatment.
Text: as §5, §1, §2, §3

Another experiment relates to CCRF-CEM cells. Kind of experiment: Cytotoxicity, non-adherent CCRF-CEM cells, CellTiter-Glo luminescent cell viability. Particulars: CCRF-CEM human T leukaemia, 96 h incubation. As to the method: CCRF-CEM is a human T leukaemia (Cancer 1965, 18: 522-529). Oxaliplatin induces bifunctional lesions such as inter- and intra-DNA strand adducts on these CCRF-CEM cells (Mol Pharmacol 2000, 58: 920-927). […] This deficiency makes these cells particularly […] to alkylating agents and to platinum compounds.
For the non-adherent CCRF-CEM cells, the cell viability is measured by the luminescence test CellTiter-Glo® Luminescent Cell Viability Assay (Promega, Madison, Wis., USA). When it is added to the cells, the reagent produces a luminescence in the presence of the ATP of the living cells. The results are evaluated on a suitable reader (Envision, Perkin-Elmer Life Sciences, Boston, Mass., USA).
The CCRF-CEM cells are cultured in RPMI1640 medium containing 10% foetal calf serum, 2 mM L-glutamine, 100 units/ml of penicillin and […] of streptomycin, at 37° C. in a 95% air/5% CO2 atmosphere. The cells, at the exponential growth phase, are introduced into the wells of a 96-well plate at the density of 5×10^3 cells per well in an opaque plate (Greiner), in a volume of 150 μl. After incubating for 4 h at 37° C. in a 95% air/5% CO2 atmosphere, the compounds (concentrated 20-fold) are added in a volume of 8 μl. The compounds are prepared beforehand as a stock solution at the concentration of 10 mM in DMSO. A serial dilution is performed before the compounds are brought into contact with the cells. After incubating for 96 h at 37° C., 100 μl of agents (CellTiter-Glo) are added. After lysing the cells, the release of ATP is evaluated on the Envision reader.
as §3
(Cellular ATP, detected with luciferase, serves as a proxy for viable cell number.)

The test system of the next experiment is H460. Briefly: Cytotoxicity, adherent cells, 14C-thymidine incorporation (cell proliferation). Particulars: NCI-H460 human non-small cell lung cancer, 96 h treatment. As to the method:
NCI-H460 is a human non-small cell lung cancer which has a mutation in the K-ras gene. This cell is sensitive to platinum compounds. In this cell line, cisplatin forms more adducts than oxaliplatin at the same concentration and yet the percentage repair is higher for oxaliplatin (DNA Repair 2006, 5: 219-225).
as §1, §2, §3

Molecules are shown by their SMILES.

As usually defined, the IC50 is the point on the concentration scale where inhibition reaches its midpoint. `Cn1c(=O)c2c(n(C)c1=O)n(C)[c](=[Pt-]([I])([I])[NH2+]C1CCCCC1)n2C` [Example 9, trans-diiodo(N-cyclohexylamine)(1,3,7,9-tetramethylxanthin-8-ylidene)platinum(II)]: the IC50 in the experiment on SK-OV-3 was greater than 10 µM; in the experiment on CH1/DDP, 2.1 µM; in the experiment with CH1, 2.2 µM; with A2780, 1.8 µM; in the experiment on A2780/DDP, 1.4 µM; with CCRF-CEM cells it was 2.7 µM. Moreover, half-maximal inhibition with H460 (IC50) was put at 1.6 µM.
Regarding `Cn1[c](=[Pt-]([I])([I])[NH2+]C2CC3CCC2C3)n(C)c2ccccc21` (racemic) [Example 7, trans-diiodo(N-exo(+/−)bicyclo[2.2.1]heptylamine)(1,3-dimethyl-benzimidazol-2-ylidene)platinum(II)], the IC50 in the experiment with SK-OV-3 worked out at 7 µM; in the experiment with CH1/DDP it was 2.4 µM; in the experiment on CH1 it was 2.5 µM; in the experiment on A2780, 0.4 µM; in the experiment on A2780/DDP, 1.8 µM; in the experiment on CCRF-CEM cells, 1.3 µM. Also, the half-inhibitory concentration (IC50) with H460 worked out at 1.9 µM.
In the case of `Cn1ccn(CC2CCCCC2)[c]1=[Pt-]([I])([I])[NH2+]C1CCCCC1` [Example 3, trans-diiodo(N-cyclohexylamine)(1-methyl-3-cyclohexylmethylimidazol-2-ylidene)platinum(II)], the IC50 amounted to 5.3 µM in the experiment with SK-OV-3; 2 µM in the experiment with CH1/DDP; 2.3 µM in the experiment with CH1; 1 µM with A2780; 1.2 µM in the experiment with A2780/DDP; 2 µM in the experiment with CCRF-CEM cells. The compound also yielded an IC50 in the experiment on H460 of 3.8 µM.
